Test results from patent publication US20240228489A1, “POSITIVE ALLOSTERIC MODULATORS OF THE MUSCARINIC ACETYLCHOLINE RECEPTOR M1” (Vanderbilt University, priority 2021, published 2024).

How the values were obtained:
human mAChR M1 [1] = biological target: T1, human mAChR M1 (Homo sapiens, UniProt P11229); test: mAChR M1 cell-based functional assay (calcium mobilization), PAM mode: increase in the EC20 acetylcholine response
T1 sequence (P11229 1-460): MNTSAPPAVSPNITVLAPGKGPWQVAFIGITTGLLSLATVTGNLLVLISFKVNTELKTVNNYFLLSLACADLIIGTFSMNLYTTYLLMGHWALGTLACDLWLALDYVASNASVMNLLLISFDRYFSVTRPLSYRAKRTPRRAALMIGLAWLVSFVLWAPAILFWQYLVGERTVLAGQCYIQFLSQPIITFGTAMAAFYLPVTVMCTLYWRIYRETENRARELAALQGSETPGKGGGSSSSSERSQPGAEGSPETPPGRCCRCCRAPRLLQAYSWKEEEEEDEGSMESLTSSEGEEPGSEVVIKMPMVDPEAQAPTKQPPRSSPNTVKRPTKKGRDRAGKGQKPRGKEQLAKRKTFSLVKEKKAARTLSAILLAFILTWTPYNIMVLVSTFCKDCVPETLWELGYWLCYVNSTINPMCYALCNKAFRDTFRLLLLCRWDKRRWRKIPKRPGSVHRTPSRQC
Source text: (§1) Chinese hamster ovary (CHO-K1) cells stably expressing rat (r)M1 were purchased from the American Type Culture Collection and cultured according to their indicated protocol. CHO cells stably expressing human (h)M2, hM3, and hM5 were described previously (Levey, et al., 1991); hM1 and hM4 cDNAs were purchased from Missouri S&T cDNA Resource; rM4 cDNA was provided by T. I. Bonner (National Institutes of Health, Bethesda, MD). rM2 and rM3 were cloned from a rat brain cDNA library and sequence verified. hM1, rM2, rM3, hM4, and rM4 cDNAs were used to stably transfect CHO-K1 cells purchased from the American Type Culture Collection using Lipofectamine2000. To make stable rM2, hM2, rM3, hM4, and rM4 cell lines for use in calcium mobilization assays, these cells also were stably transfected with a chimeric G-protein (Gqi5) (provided by B. R. Conklin, University of California, San Francisco) using Lipofectamine 2000. rM1, hM1, rM3, hM3, rM5, and hM5 cells were grown in Ham's F-12 medium containing 10% heat-inactivated fetal bovine serum (FBS), 20 mM HEPES, and 50 μg/mL G418 sulfate. rM2-Gqi5, hM2-Gqi5, and hM4-Gqi5 cells were grown in the same medium also containing 500 μg/mL Hygromycin B. Stable rM4-Gqi5 cells were grown in DMEM containing 10% heat-inactivated FBS, 20 mM HEPES, 400 μg/mL G418 sulfate, and 500 μg/mL Hygromycin B.
(§2) For high throughput measurement of agonist-evoked increases in intracellular calcium, CHO-K1 cells stably expressing muscarinic receptors were plated in growth medium lacking G418 and hygromycin at 15,000 cells/20 μL/well in Greiner 384-well black-walled, tissue culture (TC)-treated, clear-bottom plates (VWR). Cells were incubated overnight at 37° C. and 5% C02. The next day, cells were washed using an ELX 405 (BioTek) with four washes (80 μL) of assay buffer then aspirated to 20 μL. Next, 20 μL of 16 μM Fluo-4/acetoxymethyl ester (Invitrogen, Carlsbad, CA) prepared as a 2.3 mM stock in DMSO and mixed in a 1:1 ratio with 10% (w/v) Pluronic F-127 and diluted in assay buffer was added to the wells and the cell plates were incubated for 50 min at 37° C. and 5% C02. Dye was removed by washing with the ELX 405 (four 80 μL washes of assay buffer) then aspirated to 20 μL. Compound master plates were formatted in an 11 point CRC format (1:3 dilutions) in 100% DMSO with a starting concentration of 10 mM using the BRAVO liquid handler (Agilent). Test compound CRCs were then transferred to daughter plates (240 nL) using the Echo acoustic plate reformatter (Labcyte, Sunnyvale, CA) and then diluted into assay buffer (40 μL) to a 2× stock using a Thermo Fisher Combi (Thermo Fisher Scientific, Waltham, MA).
Calcium flux was measured using the Functional Drug Screening System (FDSS) 6000 (Hamamatsu Corporation, Tokyo, Japan) as an increase in the fluorescent static ratio. Compounds were applied to cells (20 μL, 2×) using the automated system of the FDSS 6000 at 4 s into the 300 s protocol and the data were collected at 1 Hz. At 144 s into the 300 s protocol, 10 μL of an EC20 concentration of the muscarinic receptor agonist acetylcholine was added (5×), followed by the addition of 12 μL of an EC80 concentration of acetylcholine at the 230 s time point (5×). Agonist activity was analyzed as a concentration-dependent increase in calcium mobilization upon compound addition. Emax values for agonist activity are expressed relative to the maximum for acetylcholine. Positive allosteric modulator activity was analyzed as a concentration-dependent increase in the EC20 acetylcholine response. Antagonist activity was analyzed as a concentration-dependent decrease in the EC80 acetylcholine response. Concentration-response curves were generated using a four-parameter logistical equation in XLfit curve fitting software (IDBS, Bridgewater, NJ) for Excel (Microsoft, Redmond, WA) or Prism (GraphPad Software, Inc., San Diego, CA). […]

human mAChR M1 [2] = biological target: T1, human mAChR M1; test: mAChR M1 cell-based functional assay (calcium mobilization), agonist mode: compound alone, Emax relative to acetylcholine maximum; details: for Agonist Activity Human M1 EC50 / EC50: human mAChR M1; for Emax: relative to the maximum for acetylcholine
Source text: as §1, §2
Calcium flux was measured using the Functional Drug Screening System (FDSS) 6000 (Hamamatsu Corporation, Tokyo, Japan) as an increase in the fluorescent static ratio. Compounds were applied to cells (20 μL, 2×) using the automated system of the FDSS 6000 at 4 s into the 300 s protocol and the data were collected at 1 Hz. At 144 s into the 300 s protocol, 10 μL of an EC20 concentration of the muscarinic receptor agonist acetylcholine was added (5×), followed by the addition of 12 μL of an EC80 concentration of acetylcholine at the 230 s time point (5×). Agonist activity was analyzed as a concentration-dependent increase in calcium mobilization upon compound addition. Emax values for agonist activity are expressed relative to the maximum for acetylcholine. Positive allosteric modulator activity was analyzed as a concentration-dependent increase in the EC20 acetylcholine response. Antagonist activity was analyzed as a concentration-dependent decrease in the EC80 acetylcholine response. Concentration-response curves were generated using a four-parameter logistical equation in XLfit curve fitting software (IDBS, Bridgewater, NJ) for Excel (Microsoft, Redmond, WA) or Prism (GraphPad Software, Inc., San Diego, CA).

Row | EC50 (human mAChR M1 [1]) | Emax (human mAChR M1 [1]) | Agonist Activity Human M1 EC50 (human mAChR M1 [2]) | Emax (human mAChR M1 [2]) | EC50 (human mAChR M1 [2]) | Structure (SMILES)
1 | 680 nM | 68% | Inactive | 6% | – | [2H]C1([2H])c2ncccc2C(=O)N1Cc1c(F)cc(-c2cnc3nn(C([2H])([2H])[2H])cc3c2)cc1F [Compound 115, 6-(2,6-difluoro-4-(2-(methyl-d3)-2H-pyrazolo[3,4-b]pyridin-5-yl)benzyl)-6,7-dihydro-5H-pyrrolo[3,4-b]pyridin-5-one-7,7-d2]
2 | 486 nM | 79% | – | 35% | ≥ 10000 nM | [2H]C1([2H])c2ncccc2C(=O)N1Cc1c(F)cc(-c2ccc(OC(C)COC)c3nn(C)cc23)cc1F (centres unmarked) [Compound 133, 6-(2,6-difluoro-4-(7-((1-methoxypropan-2-yl)oxy)-2-methyl-2H-indazol-4-yl)benzyl)-6,7-dihydro-5H-pyrrolo[3,4-b]pyridin-5-one-7,7-d2]
3 | 815 nM | 75% | – | 63% | 2560 nM | [2H]C1([2H])c2ncccc2C(=O)N1Cc1c(F)cc(-c2ccc(OCCOC)c3nn(C)cc23)cc1C1CC1 [Compound 203, 6-(2-cyclopropyl-6-fluoro-4-(7-(2-methoxyethoxy)-2-methyl-2H-indazol-4-yl)benzyl)-6,7-dihydro-5H-pyrrolo[3,4-b]pyridin-5-one-7,7-d2]
4 | 317 nM | 87% | Inactive | 5% | – | [2H]C1([2H])c2ncccc2C(=O)N1Cc1ccc(-c2ccc(C)c3nn(C([2H])([2H])[2H])cc23)cc1F [Compound 56, 6-(2-fluoro-4-(7-methyl-2-(methyl-d3)-2H-indazol-4-yl)benzyl)-6,7-dihydro-5H-pyrrolo[3,4-b]pyridin-5-one-7,7-d2]
5 | > 10000 nM | 47% | Inactive | 1% | – | [2H]C1([2H])c2ncccc2C(=O)N1Cc1c(F)cc(-c2cc(F)c(Cl)c3nn(C)cc23)cc1F [Compound 245, 6-(4-(7-chloro-6-fluoro-2-methyl-2H-indazol-4-yl)-2,6-difluorobenzyl)-6,7-dihydro-5H-pyrrolo[3,4-b]pyridin-5-one-7,7-d2]
6 | 542 nM | 84% | Inactive | 4% | – | [2H]C1([2H])c2ncccc2C(=O)N1Cc1c(F)cc(-c2ccc(C)c3nn(C)cc23)cc1F [Compound 27, 6-(4-(2,7-dimethyl-2H-indazol-4-yl)-2,6-difluorobenzyl)-6,7-dihydro-5H-pyrrolo[3,4-b]pyridin-5-one-7,7-d^2]
7 | 6460 nM | 62% | Inactive | 1% | – | [2H]C1([2H])c2ncccc2C(=O)N1Cc1c(F)cc(-c2cccc3nn(C([2H])([2H])[2H])cc23)cc1C1CCCC1 [Compound 224, 6-(2-cyclopentyl-6-fluoro-4-(2-(methyl-d3)-2H-indazol-4-yl)benzyl)-6,7-dihydro-5H-pyrrolo[3,4-b]pyridin-5-one-7,7-d2]
8 | 643 nM | 80% | – | 27% | ≥ 10000 nM | [2H]C1([2H])c2ncccc2C(=O)N1Cc1ccc(-c2ccc(O[C@@H](C)COC)c3nn(C)cc23)cc1F [Compound 152, (S)-6-(2-fluoro-4-(7-((1-methoxypropan-2-yl)oxy)-2-methyl-2H-indazol-4-yl)benzyl)-6,7-dihydro-5H-pyrrolo[3,4-b]pyridin-5-one-7,7-d2]
9 | 2420 nM | 76% | Inactive | 6% | – | [2H]C1([2H])c2ncccc2C(=O)N1Cc1ccc(-c2cnc3nn(C)cc3c2)cc1F [Compound 21, 6-(2-fluoro-4-(2-methyl-2H-pyrazolo[3,4-b]pyridin-5-yl)benzyl)-6,7-dihydro-5H-pyrrolo[3,4-b]pyridin-5-one-7,7-d2]
10 | 188 nM | 75% | – | 36% | 5040 nM | [2H]C1([2H])c2ncccc2C(=O)N1Cc1c(F)cc(-c2ccc(OC3COC3)c3nn(C)cc23)cc1F [Compound 139, 6-(2,6-difluoro-4-(2-methyl-7-(oxetan-3-yloxy)-2H-indazol-4-yl)benzyl)-6,7-dihydro-5H-pyrrolo[3,4-b]pyridin-5-one-7,7-d2]
11 | > 10000 nM | 34% | Inactive | 5% | – | [2H]C1([2H])c2ncccc2C(=O)N1Cc1c(F)cc(-c2cccc3c2cnn3C(F)F)cc1F [Compound 243, 6-(4-(1-(difluoromethyl)-1H-indazol-4-yl)-2,6-difluorobenzyl)-6,7-dihydro-5H-pyrrolo[3,4-b]pyridin-5-one-7,7-d2]
12 | 1120 nM | 55% | Inactive | 1% | – | [2H]C1([2H])c2ncccc2C(=O)N1Cc1c(F)cc(-c2ccc(OCC3CN(C(=O)OC(C)(C)C)C3)c3nn(C)cc23)cc1F [Compound 179, tert-butyl 3-(((4-(3,5-difluoro-4-((5-oxo-5,7-dihydro-6H-pyrrolo[3,4-b]pyridin-6-yl-7,7-d2)methyl)phenyl)-2-methyl-2H-indazol-7-yl)oxy)methyl)azetidine-1-carboxylate]
13 | 1050 nM | 58% | Inactive | 2% | – | [2H]C1([2H])c2ncccc2C(=O)N1Cc1c(F)cc(-c2cccc3nn(C([2H])([2H])[2H])c(F)c23)cc1C1CC1 [Compound 191, 6-(2-Cyclopropyl-6-fluoro-4-(3-fluoro-2-(methyl-d3)-2H-indazol-4-yl)benzyl)-6,7-dihydro-5H-pyrrolo[3,4-b]pyridin-5-one-7,7-d2]
14 | 382 nM | 82% | – | 5% | > 10000 nM | [2H]C1([2H])c2ncccc2C(=O)N1Cc1ccc(-c2ccc(F)c3nn(C([2H])([2H])[2H])cc23)cc1F [Compound 54, 6-(2-fluoro-4-(7-fluoro-2-(methyl-d3)-2H-indazol-4-yl)benzyl)-6,7-dihydro-5H-pyrrolo[3,4-b]pyridin-5-one-7,7-d2]
